{"source": "patent US20110257146A1", "about": "“Method of Treating Kcnq Related Disorders Using Organozinc Compounds” (The johns Hopkins University, priority 2006, published 2011)", "type_in_all_cases": "cell-based", "key": {"[1]": {"target": "T1, human ether-a-go-go related gene (hERG) (Homo sapiens, UniProt Q12809)", "T1 construct": "expressed in transfected cells", "experimental": "Cell culture and transient transfection—Chinese Hamster Ovary (CHO) cells were grown in 50/50 DMEM/F12 (Cellgro) with 10% FBS (Gibco), 100 U/ml penicillin (Cellgro), 100 μg/ml streptomycin (Cellgro) and 2 mM L-glutamine (Gibco). At 24 hours before transfection, cells were split and plated in 60 mm dishes and were transfected with Lipofectamine2000™ reagent (Invitrogen) according to the manufacturer's instruction. At 24 hours after transfection, cells were split and re-plated onto coverslips coated with poly-L-lysine (Sigma). Plasmid expressing CD4 cDNA as a marker was cotransfected with the channel cDNAs of hKCNQ1 (from Dr. Michael Sanguinetti), hKCNQ4 (from Dr. Vitya Vardanyan), rKCNQ2, rKCNQ3, and hKCNQ5 (from Drs. David McKinnon, Mark Shapiro, and Thomas Jentsch). Prior to recording, anti-CD4 Dynabeads (Dynal. Biotech. Inc.) were added into the medium to allow for identification of the transfected cells. Stable lines expressing Kv2.1, hERG, and Kv4.2 were generated by standard protocols using pcDNA3.1 and maintained at complete medium supplemented with 500 μg/ml G418. […]\nElectrophysiological Recording—Standard whole-cell recording was used. […] Current and voltage were recorded using an Axopatch-200A amplifier, filtered at 1 kHz and digitized using a DigiData 1322A with pClamp 9.2 software (Axon Instruments, Foster City, Calif.). […]"}, "KCNQ2(Y284C)": {"target": "T2, KCNQ2(Y284C) (Rattus norvegicus, UniProt O88943, Y284C)", "T2 construct": "expressed in transfected cells; host or cells: CHO cells, transient", "assay": "Whole-cell recording of KCNQ2(Y284C) BFNC mutant in CHO cells", "settings": "10 μM ZnPy", "experimental": "FIG. 11. ZnPy effects on BFNC mutant channels expressed in CHO cells. A. whole-cell currents of KCNQ2(R207W), KCNQ2(Y284C), and KCNQ2(A306T) were recorded in the absence (left) and presence (right) of 10 μM ZnPy, Vh was −80 mV, in 10 mV voltage steps from −70 mV to +50 mV. B. a histogram plotting potentiation effects on KCNQ2 wild type (wt) and BFNC mutants (R207W, Y284C and […]) by ZnPy (filled box) and retigabine (open box) (n≧4, * p<0.001, ** p<0.05).\n(§1) Mutagenesis—Starting from KCNQ cDNAs, the KCNQ2 point mutants were constructed by recombinant PCR and verified by sequencing.\nElectrophysiological Recording—Standard whole-cell recording was used. Pipettes were pulled from borosilicate glass capillaries (TW150-4, World Precision Instruments, Sarasota, Fla.). When filled with the intracellular solution, the pipettes have resistances of […]. During the recording, constant perfusion of extracellular solution was maintained using a BPS perfusion system (ALA, Westbury, N.Y.). Pipette solution contained (mM): KCl 145, MgCl2 1, EGTA 5, HEPES 10, MgATP 5 (pH 7.3); extracellular solution contained (mM): NaCl 140, KCl 3, CaCl2 2, MgCl2 1.5, HEPES 10, glucose 10 (pH 7.4). Current and voltage were recorded using an Axopatch-200A amplifier, filtered at 1 kHz and digitized using a DigiData 1322A with pClamp 9.2 software (Axon Instruments, Foster City, Calif.). […]"}, "KCNQ2 L249A": {"target": "T3, KCNQ2 L249A (Rattus norvegicus, UniProt O88943, L249A)", "T3 construct": "expressed in transfected cells", "assay": "Whole-cell recording of KCNQ2 L249A mutant", "excerpt": "FIG. 9. KCNQ2 point mutants selectively lose ZnPy sensitivity. […] Each mutation site was indicated based on the predicted transmembrane regions. Dashed line indicates the potentiation level of wt KCNQ2 channel in the absence of ZnPy. […] C. Modeling of the S5-pore-S6 region of KCNQ2.\nas §1\n(§2) Electrophysiological Recording—Standard whole-cell recording was used. Pipettes were pulled from borosilicate glass capillaries (TW150-4, World Precision Instruments, Sarasota, Fla.). When filled with the intracellular solution, the pipettes have resistances of […]. During the recording, constant perfusion of extracellular solution was maintained using a BPS perfusion system (ALA, Westbury, N.Y.). Pipette solution contained (mM): KCl 145, MgCl2 1, EGTA 5, HEPES 10, MgATP 5 (pH 7.3); extracellular solution contained (mM): NaCl 140, KCl 3, CaCl2 2, MgCl2 1.5, HEPES 10, glucose 10 (pH 7.4). Current and voltage were recorded using an Axopatch-200A amplifier, filtered at 1 kHz and digitized using a DigiData 1322A with pClamp 9.2 software (Axon Instruments, Foster City, Calif.). Series resistance compensation was also used and set to 60-80%."}, "KCNQ2": {"target": "KCNQ2 (Rattus norvegicus, UniProt O88943)", "assay": "Whole-cell voltage clamp of CHO cells expressing KCNQ2", "design": "expressed in transfected cells; host or cells: CHO cells", "experimental": "Cell culture and transient transfection—Chinese Hamster Ovary (CHO) cells were grown in 50/50 DMEM/F12 (Cellgro) with 10% FBS (Gibco), 100 U/ml penicillin (Cellgro), 100 μg/ml streptomycin (Cellgro) and 2 mM L-glutamine (Gibco). At 24 hours before transfection, cells were split and plated in 60 mm dishes and were transfected with Lipofectamine2000™ reagent (Invitrogen) according to the manufacturer's instruction. At 24 hours after transfection, cells were split and re-plated onto coverslips coated with poly-L-lysine (Sigma). Plasmid expressing CD4 cDNA as a marker was cotransfected with the channel cDNAs of hKCNQ1 (from Dr. Michael Sanguinetti), hKCNQ4 (from Dr. Vitya Vardanyan), rKCNQ2, rKCNQ3, and hKCNQ5 (from Drs. David McKinnon, Mark Shapiro, and Thomas Jentsch). Prior to recording, anti-CD4 Dynabeads (Dynal. Biotech. Inc.) were added into the medium to allow for identification of the transfected cells. Stable lines expressing Kv2.1, hERG, and Kv4.2 were generated by standard protocols using pcDNA3.1 and maintained at complete medium supplemented with 500 μg/ml G418. The N-type calcium channel stable line was a kind gift from Drs. Diane Lipscombe and David Yue.\nas §2\nData and Statistical Analysis—Patch-clamp data were preprocessed using Clampfit 9.2 (Axon Instruments, Foster City, Calif.) and then analyzed in Origin 7 (OriginLab, Northampton, Mass.). The activation curve was fitted by the Boltzmann equation: G=(Gmax−Gmin)/[1+exp[(V−V1/2)/S]]+Gmin, where Gmax is the maximum conductance, Gmin is the minimum conductance, V1/2 is the voltage for half of the total numbers of channels to open, and S is the slope factor. The dose response curve was fitted by the Hill equation: E=Emax/(1+(EC50/C)^P), where Emax is the maximum response, C is the drug concentration, EC50 is the drug concentration producing half of the maximum response, and P is the Hill coefficient. The deactivation trace was fitted by the standard exponential equation: I(t)=ΣIi*exp(−t/τi), where I is the current, t is the time and τ is the time constant. Data are presented as means±SE. Significance was estimated using paired two-tailed Student's t-test."}}}
{"smiles": "S=c1ccccn1[O][Zn][O]n1ccccc1=S", "note": "[ZnPy, Zinc Pyrithione]", "values": [{"measurement": "potentiation of channel activity", "setting": "[1]", "value": "did not potentiate"}, {"measurement": "fold current increase", "setting": "KCNQ2(Y284C)", "value": "more than 3 fold"}, {"measurement": "change in V1/2 caused by ZnPy", "setting": "KCNQ2 L249A", "value": "significant reduction on changes in V1/2"}, {"measurement": "effect on membrane potential of CHO cells expressing KCNQ2", "setting": "KCNQ2; 10 μM ZnPy", "value": "significant hyperpolarization"}, {"measurement": "left (hyperpolarizing) shift of V1/2", "setting": "KCNQ2; 10 μM ZnPy", "value": "25.5±1.5", "unit": "mV"}, {"measurement": "effect on TEA-blocked KCNQ2 current", "setting": "KCNQ2; 10 μM ZnPy extracellular in presence of 20 mM TEA", "value": "unable to reverse the TEA inhibition"}, {"measurement": "potentiation on intracellular application", "setting": "KCNQ2; 10 μM ZnPy in pipette solution, with or without EGTA", "value": "induced no potentiation"}, {"measurement": "V1/2 on internal perfusion", "setting": "KCNQ2; 10 μM ZnPy through recording pipette, 0 to 12 minutes", "value": "consistent and identical to that of KCNQ2 control"}, {"measurement": "effect on channel activity", "setting": "KCNQ2; 10 μM ZnPy, extracellular", "value": "potentiated"}, {"measurement": "V1/2 (voltage required for half maximal activation) in presence of compound", "setting": "KCNQ2; 10 μM ZnPy, control −18.9±0.6 mV", "value": "−44.4±0.9", "unit": "mV"}, {"measurement": "activation time constant", "setting": "KCNQ2; +50 mV, with ZnPy, control 163.5±13.7", "value": "293.1±11.2", "unit": "milliseconds"}, {"measurement": "Hill coefficient of dose dependent curve", "setting": "KCNQ2; KCNQ2", "value": 1.8}, {"measurement": "EC50", "setting": "KCNQ2; KCNQ2 alone, read-out: EC50 of midpoint of activation voltage (V1/2) shift", "value": "1500 ± 300", "unit": "nM"}, {"measurement": "deactivation time constant", "setting": "KCNQ2; −120 mV, 10 μM ZnPy, control 14.1±0.6", "value": "54.4±0.9", "unit": "milliseconds"}]}
